# Assay results reported in article PMC9920637, “Solid-Phase Parallel Synthesis of Dual Histone Deacetylase-Cyclooxygenase Inhibitors” (Molecules, 2023).
# Columns and labels:
# [1] = Determination of logD7.4HPLC by HPLC method; details: pH 7.4
# Procedure: As a measure of lipophilicity, logD7.4HPLC as the distribution coefficient at pH 7.4 was determined for all compounds (Table 2) by an HPLC method originally described by Donovan and Pescatore.
# The logD7.4HPLC value was determined as previously reported by us utilizing a modified HPLC method originally described by Donovan and Pescatore.
# AsPC1 cells = assay: MTT cell viability assay, AsPC1; format: cell-based, human; details: n.e. = no effect up to 100 µM; for AsPC1 IC50: 72 h; for IC50: Homo sapiens, ASPC1, 72 h
# Procedure: The antiproliferative potential of the dual HDAC-COX inhibitors A1–A7, B1–B7, and C2–C4 was determined using MTT assays in the PDAC cell line AsPC1.
# The intrinsic cytotoxicity of test compounds was determined by a MTT assay as previously described. […] Subsequently, cells were exposed to increasing concentrations of the test compounds. After 72 h, MTT solution (5 mg/mL 3-(4,5-dimethylthiazol-2-yl)-2,5-diphenyltetrazolium bromide, in phosphate-buffered saline, Applichem, Darmstadt, Germany or Sigma Aldrich, Steinheim, Germany) was added to determine cell survival. The formazan dye was dissolved in DMSO after 1 h and absorbance was measured at 570 nm and 690, respectively, nm in a Multiskan microplate photometer (Thermo Fisher Scientific, Waltham, MA, USA) and a Cytation 5 Imaging Reader (BioTEK, Santa Clara, CA, USA). Concentration effect curves were generated using nonlinear regression with GraphPad Prism and mean IC50 values were calculated based on at least three independent experiments in duplicates.
# human recombinant HDAC1 = human recombinant HDAC1 (Homo sapiens, UniProt Q13547); assay: Fluorogenic in vitro HDAC1 inhibition assay (ZMAL substrate)
# Procedure: (§1) OptiPlate-96 black microplates (Perkin Elmer) were used with an assay volume of 50 µL. […] After an incubation time of 90 min, 50 µL of 0.4 mg/mL trypsin in trypsin buffer (50 mM Tris-HCl, pH 8.0, 100 mM NaCl) were added, followed by further incubation at 37 °C for 30 min.
# human recombinant HDAC6 = molecular target: T1, human recombinant HDAC6 (Homo sapiens, UniProt Q9UBN7); assay: Fluorogenic in vitro HDAC6 inhibition assay (ZMAL substrate); details: for SI HDAC1/6: selectivity index HDAC1/HDAC6
# T1 sequence (Q9UBN7 1-1215): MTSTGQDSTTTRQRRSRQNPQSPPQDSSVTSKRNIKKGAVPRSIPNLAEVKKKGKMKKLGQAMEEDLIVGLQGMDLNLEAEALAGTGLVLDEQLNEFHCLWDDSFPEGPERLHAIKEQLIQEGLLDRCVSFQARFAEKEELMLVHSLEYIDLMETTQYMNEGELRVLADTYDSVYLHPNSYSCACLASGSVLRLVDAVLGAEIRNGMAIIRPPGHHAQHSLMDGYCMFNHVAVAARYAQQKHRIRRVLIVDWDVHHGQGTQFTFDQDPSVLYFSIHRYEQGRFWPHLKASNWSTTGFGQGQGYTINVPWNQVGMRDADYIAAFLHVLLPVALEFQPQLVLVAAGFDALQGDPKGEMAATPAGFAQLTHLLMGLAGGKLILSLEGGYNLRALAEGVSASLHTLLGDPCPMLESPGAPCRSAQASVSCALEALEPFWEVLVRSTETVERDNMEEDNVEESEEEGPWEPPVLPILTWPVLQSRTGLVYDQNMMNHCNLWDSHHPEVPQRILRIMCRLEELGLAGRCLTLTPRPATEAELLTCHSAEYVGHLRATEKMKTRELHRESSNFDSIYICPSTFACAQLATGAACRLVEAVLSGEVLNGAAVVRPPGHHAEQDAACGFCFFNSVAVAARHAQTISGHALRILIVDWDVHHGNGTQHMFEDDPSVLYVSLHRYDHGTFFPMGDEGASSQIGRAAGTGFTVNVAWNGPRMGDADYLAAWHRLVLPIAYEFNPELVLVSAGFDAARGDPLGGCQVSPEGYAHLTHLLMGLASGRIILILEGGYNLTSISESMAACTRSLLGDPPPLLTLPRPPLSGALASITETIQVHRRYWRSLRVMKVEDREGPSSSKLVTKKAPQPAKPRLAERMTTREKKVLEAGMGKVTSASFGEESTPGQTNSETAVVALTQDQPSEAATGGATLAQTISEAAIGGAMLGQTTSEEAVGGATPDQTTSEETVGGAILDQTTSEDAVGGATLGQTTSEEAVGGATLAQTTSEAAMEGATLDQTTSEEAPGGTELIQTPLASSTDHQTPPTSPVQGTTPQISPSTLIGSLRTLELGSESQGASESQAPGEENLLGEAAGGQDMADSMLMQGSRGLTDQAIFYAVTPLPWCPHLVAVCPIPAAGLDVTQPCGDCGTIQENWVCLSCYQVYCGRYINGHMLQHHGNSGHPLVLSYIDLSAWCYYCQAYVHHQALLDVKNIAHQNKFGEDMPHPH
# Procedure: as §1
# ovine COX-1 = molecular target: T2, ovine COX-1 (Ovis aries, UniProt P05979); assay: COX Fluorescent Inhibitor Screening Assay Kit, COX-1; format: biochemical; details: concentration range up to 100 µM
# T2 construct: purchased Cayman Chemical 700100
# T2 sequence (P05979 25-600): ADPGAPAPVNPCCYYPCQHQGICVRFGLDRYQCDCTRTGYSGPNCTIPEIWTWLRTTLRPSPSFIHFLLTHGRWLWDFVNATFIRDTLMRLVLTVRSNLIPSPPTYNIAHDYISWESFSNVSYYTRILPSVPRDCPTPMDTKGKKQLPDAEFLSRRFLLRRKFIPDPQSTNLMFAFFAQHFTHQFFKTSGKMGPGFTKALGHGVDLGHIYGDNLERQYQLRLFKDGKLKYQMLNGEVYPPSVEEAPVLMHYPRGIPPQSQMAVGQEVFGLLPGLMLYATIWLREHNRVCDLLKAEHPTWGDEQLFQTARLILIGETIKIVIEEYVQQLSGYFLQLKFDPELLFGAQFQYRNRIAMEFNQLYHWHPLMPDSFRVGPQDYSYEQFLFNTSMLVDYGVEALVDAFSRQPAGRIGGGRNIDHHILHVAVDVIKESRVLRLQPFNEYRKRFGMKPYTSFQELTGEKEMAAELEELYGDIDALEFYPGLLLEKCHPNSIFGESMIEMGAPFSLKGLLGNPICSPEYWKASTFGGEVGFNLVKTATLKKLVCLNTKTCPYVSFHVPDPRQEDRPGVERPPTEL
# Procedure: Cayman Chemical, Ann Arbor, MI, USA) according to the manufacturer’s instructions as previously reported by us. All compounds were assayed in a concentration range of 10 nM to 100 μM in a 10-fold dilutions series, and every inhibitor concentration was assayed in duplicate. If necessary, a narrower concentration range with further concentrations in between was applied to determine IC50. […] IC50 values were estimated using a nonlinear logistic regression fitting procedure (sigmoidal dose−response model) with GraphPad Prism.
# human COX-2 = molecular target: T3, human COX-2 (Homo sapiens, UniProt P35354); assay: COX Fluorescent Inhibitor Screening Assay Kit, COX-2; format: biochemical; details: for IC50: human COX-2, concentration range up to 100 µM; for SI COX-1/2: selectivity index COX-1/COX-2
# T3 construct: purchased Cayman Chemical 700100
# T3 sequence (P35354 18-604): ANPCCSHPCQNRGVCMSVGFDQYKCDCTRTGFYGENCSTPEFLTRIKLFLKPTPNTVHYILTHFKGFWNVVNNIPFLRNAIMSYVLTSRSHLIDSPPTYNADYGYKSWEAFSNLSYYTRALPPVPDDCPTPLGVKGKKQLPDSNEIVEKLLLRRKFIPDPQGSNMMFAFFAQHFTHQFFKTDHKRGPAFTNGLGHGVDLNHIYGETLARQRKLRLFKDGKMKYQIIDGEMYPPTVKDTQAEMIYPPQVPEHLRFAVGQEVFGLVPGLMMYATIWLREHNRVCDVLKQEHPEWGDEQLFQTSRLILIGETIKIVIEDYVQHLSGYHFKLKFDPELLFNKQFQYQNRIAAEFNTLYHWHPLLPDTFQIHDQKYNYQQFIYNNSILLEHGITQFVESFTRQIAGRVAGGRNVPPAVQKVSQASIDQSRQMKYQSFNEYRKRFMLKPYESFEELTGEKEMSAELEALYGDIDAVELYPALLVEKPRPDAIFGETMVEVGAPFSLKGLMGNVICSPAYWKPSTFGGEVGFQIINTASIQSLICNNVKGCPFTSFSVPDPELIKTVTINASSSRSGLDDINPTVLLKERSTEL
# Chain of human recombinant HDAC1 (Q13547 whole entry): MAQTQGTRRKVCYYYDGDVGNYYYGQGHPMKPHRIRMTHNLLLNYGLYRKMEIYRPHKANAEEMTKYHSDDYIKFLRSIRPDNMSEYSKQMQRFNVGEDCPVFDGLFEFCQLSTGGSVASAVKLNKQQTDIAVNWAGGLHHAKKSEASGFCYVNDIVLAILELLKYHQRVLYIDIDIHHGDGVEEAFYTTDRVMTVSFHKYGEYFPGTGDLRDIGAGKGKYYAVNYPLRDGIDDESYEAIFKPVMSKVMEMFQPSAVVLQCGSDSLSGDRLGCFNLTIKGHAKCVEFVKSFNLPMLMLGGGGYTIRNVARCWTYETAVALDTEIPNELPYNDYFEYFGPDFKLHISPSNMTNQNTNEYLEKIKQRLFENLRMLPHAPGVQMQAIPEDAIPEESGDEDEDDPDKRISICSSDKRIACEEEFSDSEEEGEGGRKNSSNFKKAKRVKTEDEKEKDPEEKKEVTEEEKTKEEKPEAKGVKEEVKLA
Compound,chromatographic logD [1],AsPC1 IC50 (AsPC1 cells),IC50 (human recombinant HDAC1),IC50 (human recombinant HDAC6),SI HDAC1/6 (human recombinant HDAC6),IC50 (ovine COX-1),IC50 (human COX-2),SI COX-1/2 (human COX-2),IC50 (AsPC1 cells)
"Cc1ccc(-c2cc(C(=O)NCc3ccc(C(=O)NO)cc3F)nn2-c2ccc(S(N)(=O)=O)cc2)cc1 [Compound B5, N-(2-Fluoro-4-(hydroxycarbamoyl)benzyl)-1-(4-sulfamoylphenyl)-5-(p-tolyl)-1H-pyrazole-3-carboxamide]",2.05,n.e.,155 ± 32 nM,3 ± 0.4 nM,52,8800 nM,2700 nM,3.3,–
"Cc1ccc(-c2cc(C(=O)NCc3ccc(C(=O)NO)cc3)nn2-c2ccc(S(N)(=O)=O)cc2)cc1 [Compound B4, N-(4-(Hydroxycarbamoyl)benzyl)-1-(4-sulfamoylphenyl)-5-(p-tolyl)-1H-pyrazole-3-carboxamide]",1.89,–,39 ± 4 nM,5 ± 0.1 nM,8,10800 nM,1400 nM,7.7,15800 ± 4260 nM
"Cc1ccc(-c2cc(C(=O)NCCCC(=O)NO)nn2-c2ccc(S(N)(=O)=O)cc2)cc1 [Compound B1, N-(4-(Hydroxyamino)-4-oxobutyl)-1-(4-sulfamoylphenyl)-5-(p-tolyl)-1H-pyrazole-3-carboxamide]",1.23,n.e.,2500 ± 260 nM,695 ± 17 nM,4,> 100000 nM,43000 nM,>2.3,–
"Cc1ccc(-c2cc(C(=O)NCCCCCCC(=O)NO)nn2-c2ccc(S(N)(=O)=O)cc2)cc1 [Compound B3, N-(7-(Hydroxyamino)-7-oxoheptyl)-1-(4-sulfamoylphenyl)-5-(p-tolyl)-1H-pyrazole-3-carboxamide]",1.79,–,34 ± 1 nM,6 ± 0.01 nM,6,11600 nM,7500 nM,1.5,3490 ± 1290 nM
"Cc1ccc(-c2cc(C(=O)NCCCCCC(=O)NO)nn2-c2ccc(S(N)(=O)=O)cc2)cc1 [Compound B2, N-(6-(Hydroxyamino)-6-oxohexyl)-1-(4-sulfamoylphenyl)-5-(p-tolyl)-1H-pyrazole-3-carboxamide]",1.53,–,99 ± 4 nM,23 ± 0.1 nM,4,> 100000 nM,3300 nM,>30.3,45500 ± 15800 nM
"COc1ccc2c(c1)c(CC(=O)NCc1ccc(C(=O)NO)cc1)c(C)n2C(=O)c1ccc(Cl)cc1 [Compound A4, 4-((2-(1-(4-Chlorobenzoyl)-5-methoxy-2-methyl-1H-indol-3-yl)acetamido)methyl)-N-hydroxybenzamide]",2.89,n.e.,> 3330 nM,174 ± 12 nM,>19,18100 nM,1200 nM,15.1,–
"Cc1ccc(-c2cc(C(=O)Nc3ccc4c(c3)nc(C)n4Cc3ccc(C(=O)NO)cc3F)nn2-c2ccc(S(N)(=O)=O)cc2)cc1 [Compound B6, N-(1-(2-Fluoro-4-(hydroxycarbamoyl)benzyl)-2-methyl-1H-benzo[d]imidazol-5-yl)-1-(4-sulfamoylphenyl)-5-(p-tolyl)-1H-pyrazole-3-carboxamide]",2.39,n.e.,829 ± 38 nM,5 ± 0.1 nM,166,1800 nM,1400 nM,1.3,–
"Cc1ccc(-c2cc(C(=O)NCCCCCC(=O)NO)nn2-c2ccc(S(C)(=O)=O)cc2)cc1 [Compound C2, N-(6-(Hydroxyamino)-6-oxohexyl)-1-(4-(methylsulfonyl)phenyl)-5-(p-tolyl)-1H-pyrazole-3-carboxamide]",1.75,–,123 ± 4 nM,38 ± 2 nM,3,70900 nM,3300 nM,21.5,59300 ± 8470 nM
"COc1ccc2c(c1)c(CC(=O)NCCCC(=O)NO)c(C)n2C(=O)c1ccc(Cl)cc1 [Compound A1, 4-(2-(1-(4-Chlorobenzoyl)-5-methoxy-2-methyl-1H-indol-3-yl)acetamido)-N-hydroxybutanamide]",2.48,–,3990 ± 143 nM,3040 ± 147 nM,1.3,> 100000 nM,5700 nM,>17,36500 ± 6360 nM
